Reference: PubChem BioAssay AID2060620 (Molecular Pharmacology Branch, DTP, NCI, 2025)
Blank lines part the entries; values can stand above or below the compound they belong to.

Tested on: 328373-195-R-J1-PDC complex spheroids, viability % test/control
Assay: Anticancer human tumor 328373-195-R-J1-PDC patient-derived head and neck squamous carcinoma cell line growth inhibition [CLK]
Details: for IC50: curve of first compound; for viability, T/C: stronger effect = lower value
Source text: A high-throughput screen of multi-cell type tumor spheroids was designed to identify active combinations of […] and targeted small molecules. Complex spheroids include a stromal component modeled by human endothelial cells (HUVEC) and fibroblasts modeled by human mesenchymal stem cells (MSCs). The concentration ranges selected for each drug and investigational agent were based upon clinically achievable concentrations if the clinical Cmax of the agent was known.
Compounds. The drugs and investigational agents: cirtuvivint (SM08502; NSC835563), CC-671 (NSC850746), vemurafenib (NSC761431), tapotoclax (NSC804041), sotorasib (NSC818433), adagrasib (NSC831453), MRTX-1133 (NSC836407), BAY2416964 (NSC825713), copanlisib (NSC816437), inavolisib (NSC800729), abemaciclib (NSC768073), osimertinib (NSC779217), entinostat (NSC756642), eltanexor (KPT-8602, NSC794443), venetoclax (NSC766270), ceralasertib (NSC777638), bortezomib (NSC756655), olaparib (NSC753686), talazoparib (NSC767125), alisertib (NSC759677), peposertib (NSC802822), gemcitabine (NSC613327), 5-fluorouracil (NSC19893), SN-38 (NSC673596), oxaliplatin (NSC266046), paclitaxel (NSC125973), and doxorubicin (NSC123127), were obtained from the National Cancer Institute (NCI) Developmental Therapeutics Program Chemical Repository. The FDA-approved anticancer drug set is available from the Developmental Therapeutics Program at https://dtp.cancer.gov/organization/dscb/obtaining/available plates.htm. […] The stock solutions were prepared in dimethyl sulfoxide (DMSO, Sigma-Aldrich, St. Louis, MO, cat. D2650), except for the platinum complexes which were prepared in saline (Quality Biological, Gaithersburg, MD, cat. 114-055-101), at 800-fold the tested concentration and stored at -70 degrees C prior to their use. All drugs and investigational agents were tested over a range starting from a high concentration at or near the clinical Cmax and decreasing in half-log increments. If the clinical Cmax for an agent had not been determined, the highest concentration tested was 10 microM.
Cell Culture. All cells were maintained in an incubator at 37 degrees C and 5% CO2 with 95% humidity. The PDC lines were cultured according to standard operating procedures established by the NCI PDMR. Briefly, all PDCs were thawed and cultured in Matrigel-coated flasks prepared with a working solution of 1X Ham's F-12 nutrient mix, without supplementation (Invitrogen, Waltham, MA, cat. 11765054), 100 U/mL penicillin-streptomycin (Invitrogen, cat. 15140122), and 2.5% Matrigel (Corning Inc., Corning, NY, cat. 354248) for the first three passages. The 947758-054-R-J2-PDC line was cultured in 6B/Colon 1A media, which includes advanced DMEM/F-12 (Thermo Fisher Scientific, cat. 12634028), 10 mM HEPES (Thermo Fisher Scientific, cat. 15630080), 1X GlutaMAX supplement (Thermo Fisher Scientific, cat. 35050061), 0.1 mg/mL primocin (InvivoGen, cat. ant-pm-2), 10% defined fetal bovine serum, heat inactivated (HyClone Laboratories Inc., cat. SH30070.03HI), 1.25 mM N-Acetyl-L-cysteine (Sigma-Aldrich, cat. A9165), 10 mM nicotinamide (Sigma-Aldrich, cat. N0636), 1X B-27 supplement (Thermo Fisher Scientific, cat. 17504044), 1X N-2 supplement (Thermo Fisher Scientific, cat. 17502048), and 10 microM Y-27632 dihydrochloride (Tocris Bioscience, cat. 1254). The 876862-298-R-J1-PDC was cultured in 6E media, which includes all 6B/Colon 1A media components plus 50% L-WRN conditioned media (ATCC, cat. CRL-3276), 50 ng/mL recombinant human EGF recombinant protein (hEGF; Thermo Fisher Scientific, cat. PHG0311), 10 ng/mL recombinant human fibroblast growth factor 10 (hGFG-10; PeproTech, cat. 100-26), 1 ng/mL recombinant human fibroblast growth factor 2 (hFGF-2; PeproTech, cat. 100-18B), and 1 µM prostaglandin E2 (PGE2; Tocris, cat. 2296). The 227483-062-R1-J1-PDC line was cultured in Panc media, containing all 6E components except hFGF-2, with the addition of 500 nM SB-431542 (Selleckchem, cat. S1067) and 10 nM gastrin (Tocris, cat. 3006). […]

[1] = second compound 0.0316 µM, first compound 0.0316 µM
[2] = second compound 0.0316 µM, first compound 0.1 µM
[3] = second compound 0.0316 µM, first compound 0.316 µM
[4] = second compound 0.0316 µM, first compound 1 µM
[5] = second compound 0.0316 µM, first compound 3.16 µM
[6] = second compound 0.0316 µM, first compound 10 µM
[7] = second compound 0.1 µM, first compound 0.0316 µM
[8] = second compound 0.1 µM, first compound 0.1 µM
[9] = second compound 0.1 µM, first compound 0.316 µM
[10] = second compound 0.1 µM, first compound 1 µM
[11] = second compound 0.1 µM, first compound 3.16 µM
[12] = second compound 0.1 µM, first compound 10 µM
[13] = second compound 0.316 µM, first compound 0.0316 µM
[14] = second compound 0.316 µM, first compound 0.1 µM
[15] = second compound 0.316 µM, first compound 0.316 µM
[16] = second compound 0.316 µM, first compound 1 µM
[17] = second compound 0.316 µM, first compound 3.16 µM
[18] = second compound 0.316 µM, first compound 10 µM
[19] = second compound 1 µM, first compound 0.0316 µM
[20] = second compound 1 µM, first compound 0.1 µM
[21] = second compound 1 µM, first compound 0.316 µM
[22] = second compound 1 µM, first compound 1 µM
[23] = second compound 1 µM, first compound 3.16 µM
[24] = second compound 1 µM, first compound 10 µM
[25] = second compound 3.16 µM, first compound 0.0316 µM
[26] = second compound 3.16 µM, first compound 0.1 µM
[27] = second compound 3.16 µM, first compound 0.316 µM
[28] = second compound 3.16 µM, first compound 1 µM
[29] = second compound 3.16 µM, first compound 3.16 µM
[30] = second compound 3.16 µM, first compound 10 µM
[31] = second compound 10 µM, first compound 0.0316 µM
[32] = second compound 10 µM, first compound 0.1 µM
[33] = second compound 10 µM, first compound 0.316 µM
[34] = second compound 10 µM, first compound 1 µM
[35] = second compound 10 µM, first compound 3.16 µM
[36] = second compound 10 µM, first compound 10 µM
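Also: spheroids exposed to the agents for 7 days.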

IC50 (second compound 0.0316 µM): 3760 nM
IC50 (second compound 0.1 µM): < 31.6 nM
IC50 (second compound 0.316 µM): < 31.6 nM
IC50 (second compound 1 µM): < 31.6 nM
IC50 (second compound 3.16 µM): < 31.6 nM
IC50 (second compound 10 µM): < 31.6 nM
Structure (SMILES): COc1ccc([C@@H](O)c2cc(-c3ncnc4cc(N5CCOCC5)ccc34)c(F)cc2Cl)nn1 + CNC(=O)c1ccc(Nc2nc(OC3CCCC3)c3c(-c4ccc5nc(C)oc5c4)c[nH]c3n2)c(OC)c1
viability, T/C [1]: 51.2%
viability, T/C [2]: 56.5%
viability, T/C [3]: 43.4%
viability, T/C [4]: 58.7%
viability, T/C [5]: 55.4%
viability, T/C [6]: 33.3%
viability, T/C [7]: 10.5%
viability, T/C [8]: 8.48%
viability, T/C [9]: 12.4%
viability, T/C [10]: 10%
viability, T/C [11]: 9.78%
viability, T/C [12]: 12.6%
viability, T/C [13]: 8.21%
viability, T/C [14]: 8.88%
viability, T/C [15]: 8.95%
viability, T/C [16]: 7.72%
viability, T/C [17]: 10.2%
viability, T/C [18]: 12.2%
viability, T/C [19]: 10.3%
viability, T/C [20]: 8.67%
viability, T/C [21]: 10.8%
viability, T/C [22]: 9.89%
viability, T/C [23]: 9.31%
viability, T/C [24]: 12.8%
viability, T/C [25]: 9.71%
viability, T/C [26]: 9.31%
viability, T/C [27]: 9.23%
viability, T/C [28]: 9.82%
viability, T/C [29]: 10.5%
viability, T/C [30]: 13.2%
viability, T/C [31]: 10.6%
viability, T/C [32]: 10.8%
viability, T/C [33]: 8.9%
viability, T/C [34]: 13.1%
viability, T/C [35]: 12.2%
viability, T/C [36]: 12.5%

Structure (SMILES): CC(CO)NC(=O)c1cc(-c2ccc(Cl)cc2)nn(-c2cnn(C)c2)c1=O (centres undefined) + CN1CCN(c2cc(C(=O)Nc3cc4cc(-c5cnn(C)c5)ccc4cn3)ccn2)CC1
IC50 (second compound 0.0316 µM): > 10000 nM
IC50 (second compound 0.1 µM): > 10000 nM
IC50 (second compound 0.316 µM): < 31.6 nM
IC50 (second compound 1 µM): < 31.6 nM
IC50 (second compound 3.16 µM): < 31.6 nM
IC50 (second compound 10 µM): < 31.6 nM
viability, T/C [1]: 108%
viability, T/C [2]: 99.5%
viability, T/C [3]: 114%
viability, T/C [4]: 106%
viability, T/C [5]: 105%
viability, T/C [6]: 97.6%
viability, T/C [7]: 86.1%
viability, T/C [8]: 92.1%
viability, T/C [9]: 94.7%
viability, T/C [10]: 98%
viability, T/C [11]: 92.6%
viability, T/C [12]: 82.6%
viability, T/C [13]: 32.2%
viability, T/C [14]: 39%
viability, T/C [15]: 35.2%
viability, T/C [16]: 39.5%
viability, T/C [17]: 38%
viability, T/C [18]: 33.9%
viability, T/C [19]: 0.23%
viability, T/C [20]: 0.27%
viability, T/C [21]: 1.91%
viability, T/C [22]: 1.81%
viability, T/C [23]: 1.3%
viability, T/C [24]: 2.16%
viability, T/C [25]: 2.73%
viability, T/C [26]: 1.98%
viability, T/C [27]: 1.71%
viability, T/C [28]: 0.57%
viability, T/C [29]: 3.9%
viability, T/C [30]: 2.11%
viability, T/C [31]: 0.74%
viability, T/C [32]: 0.62%
viability, T/C [33]: 0.43%
viability, T/C [34]: 1%
viability, T/C [35]: 0.24%
viability, T/C [36]: 3.1%
